Test [1] addresses CRBN (Homo sapiens, UniProt Q96SW2). As to conditions: compared with lenalidomide and pomalidomide; cited from earlier work.
The test system of test [2] is RPMI-8226 target cells. Description: Acute co-culture cytokine secretion of anti-BCMA CAR T cells with RPMI-8226. The format is cell-based, human. As to conditions: RPMI-8226, E:T 1:1, 24 hours, 0.01-10,000 nM, FIG. 2A. How it is done:
(§1) Anti-tumor effects of anti-BCMA CAR T cells, alone and in combination with cell immunomodulatory compounds Compound A (iberdomide, (S)-3-[4-(4-morpholin-4-ylmethyl-benzyloxy)-1-oxo-1,3-dihydro-isoindol-2-yl]-piperidine-2,6-dione) or Compound B ((S)-4-(4-(4-(((2-(2,6-dioxopiperidin-3-yl)-1-oxoisoindolin-4-yl)oxy)methyl)benzyl)piperazin-1-yl)-3-fluorobenzonitrile), were assessed in two different BCMA-expressing target multiple myeloma cell lines RPMI-8226 or OPM-2. Anti-BCMA CAR+ T cells were generated as described in Example 1.
(§2) The anti-BCMA CAR-expressing T cells were incubated with target cells, RPMI 8226 (BCMA^med human multiple myeloma cell line) or OPM2 cells (BCMA^med human multiple myeloma cell line) target cells, at an E:T ratio of 1:1. The co-culture incubation with target cells was carried out in the presence of Compound A (0.01 nM, 0.1 nM, 1 nM, 10 nM, 100 nM, 1000 nM, or 10,000 nM) or Compound B (0.01 nM, 0.1 nM, 1 nM, 10 nM, 100 nM, 1000 nM, or 10,000 nM).

Test [3] has as its system Aiolos. Description: Intracellular Aiolos expression in BCMA-bead stimulated anti-BCMA CAR T cells (flow cytometry, MFI). The format is cell-based, human. To be noted: CD4+CAR+ or CD8+CAR+ cells; 24 or 72 hours; lenalidomide 1000 nM, Compound A 1, 10, 100 nM, Compound B 0.1, 1, 10 nM. The procedure: A BCMA-Fc fusion protein containing the extracellular domain of human BCMA and a human IgG1Fc was conjugated to beads by covalently coupling to the surface of commercially available tosyl-activated magnetic beads having a diameter of approximately […] (M-450 beads, ThermoFisher, Waltham Mass.) (see e.g. International published PCT App. No. WO2019/027850). Following incubation, anti-BCMA CAR-expressing T cells were stained with antibodies and analyzed by flow cytometry to assess intracellular levels of Ikaros and Aiolos in CD4+CAR+ or CD8+CAR+ cells, as measured by median fluorescence intensity (MFI). Median fluorescence intensity (MFI) values for Ikaros and Aiolos were normalized and calculated as a percentage relative to vehicle control.
A general note: Flow cytometry measures light scatter and fluorescence of single cells or particles in a stream.

Test [4] concerns OPM2 target cells. Description: Acute co-culture cytokine secretion of anti-BCMA CAR T cells with OPM2. The class given is cell-based, human. To be noted: OPM2, E:T 1:1, 24 hours, 0.01-10,000 nM, FIG. 2B. The procedure: as §1, §2
Cytokine secretion of IL-2, TNFα and IFN-gamma cytokines from cell culture supernatant of the co-cultures after 24 hours of incubation with targets cells was determined. Co-culture of anti-BCMA CAR+ T cells with Compound A enhanced the CAR T cytokine production both against RPMI-8226 target cells (FIG. 2A) and OPM2 target cells (FIG. 2B).

Test [5] relates to anti-BCMA CAR T cells. The experiment in a line: Viability and count of anti-BCMA CAR T cells after 7-day chronic stimulation with BCMA-conjugated beads. The class given is cell-based, human. The procedure:
Cryofrozen anti-BCMA CAR T cells, produced substantially as described in Example 1 and formulated at a 1:1 ratio of CD4+ and CD8^+ T cells, were thawed. To subject cells to chronic stimulation conditions, the anti-BCMA CAR+ T cells were stimulated with 50 μg BCMA conjugated beads (diameter about 4.5 μm from a 50 μg/ml BCMA-conjugated bead composition, generated as described in Example 2) at a ratio of T cells to beads of 1:1 in the presence or absence of Compound A (iberdomide, (S)-3-[4-(4-morpholin-4-ylmethyl-benzyloxy)-1-oxo-1,3-dihydro-isoindol-2-yl]-piperidine-2,6-dione) (1 nM or 10 nM), Compound B ((S)-4-(4-(4-(((2-(2,6-dioxopiperidin-3-yl)-1-oxoisoindolin-4-yl)oxy)methyl)benzyl)piperazin-1-yl)-3-fluorobenzonitrile) (0.1 nM or 1 nM), or DMSO vehicle control. The cells were then incubated at 37° C., 5% CO2 for 7 days.
At day 7, anti-BCMA CAR cells of all the samples were counted using a cellometer machine and stained for flow cytometric analysis. Cells were stained with a viability dye and analyzed by flow cytometry. Viability and count of anti-BCMA CAR T cells was increased in the presence of Compound A or Compound B.
Cryofrozen anti-BCMA CAR T cells, produced substantially as described in Example 1 and formulated at a 1:1 ratio of CD4+ and CD8+ T cells, were thawed. […] The cells were then incubated at 37° C., 5% CO2 for 7 days.
At day 7, anti-BCMA CAR cells of all the samples were counted using a cellometer machine and stained for flow cytometric analysis. Cells were stained with a viability dye and analyzed by flow cytometry.

Setting [6] is: Example 3: day 7, Compound A 1 or 10 nM, Compound B 0.1 or 1 nM.
Setting [7] is: Example 7: day 7, lenalidomide 1000 nM, Compound A 0.1, 1 or 10 nM, FIG. 8.

CRBN, sequence (Q96SW2 whole entry, species assumed): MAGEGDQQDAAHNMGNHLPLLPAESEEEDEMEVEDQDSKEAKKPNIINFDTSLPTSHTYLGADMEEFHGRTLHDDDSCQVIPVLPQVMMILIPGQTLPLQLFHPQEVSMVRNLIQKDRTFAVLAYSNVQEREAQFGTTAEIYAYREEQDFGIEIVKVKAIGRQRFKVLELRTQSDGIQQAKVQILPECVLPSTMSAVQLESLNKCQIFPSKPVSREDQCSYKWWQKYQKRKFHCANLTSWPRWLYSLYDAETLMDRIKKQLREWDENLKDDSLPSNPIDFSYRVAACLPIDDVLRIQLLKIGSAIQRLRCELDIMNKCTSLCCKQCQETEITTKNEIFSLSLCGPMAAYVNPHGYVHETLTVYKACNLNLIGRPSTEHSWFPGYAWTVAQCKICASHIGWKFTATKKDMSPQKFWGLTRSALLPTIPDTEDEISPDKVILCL

Turning to `O=C1CC[C@H](N2Cc3c(OCc4ccc(CN5CCOCC5)cc4)cccc3C2=O)C(=O)N1` [Compound A, (S)-3-[4-(4-morpholin-4-ylmethyl-benzyloxy)-1-oxo-1,3-dihydro-isoindol-2-yl]-piperidine-2,6-dione], in test [1], the “binding to CRBN” value is “binds more potently”. In addition, the “CAR T cytokine production (IL-2, TNFα, IFN-gamma in supernatant)” value in test [2] and in test [4] was “enhanced” each time. Further, in test [3], the “intracellular Aiolos expression (MFI, percentage relative to vehicle control)” value is listed as “concentration dependent decrease”. Also, the “count of anti-BCMA CAR T cells” value in test [5] (setting [6]) and in test [5] (setting [7]) was “increased” in each case. The “viability of anti-BCMA CAR T cells” value in test [5] (setting [6]) and in test [5] (setting [7]) was “increased” in each case.

Source of the values: patent US20230165872A1, “COMBINATION OF BCMA-DIRECTED T CELL THERAPY AND AN IMMUNOMODULATORY COMPOUND” (Juno Therapeutics, Inc., priority 2020, published 2023).
